Measured values as given in ChEMBL document CHEMBL1949629, “Discovery of a second generation agonist of the orphan G-protein coupled receptor GPR119 with an improved profile” (Bioorg Med Chem Lett, 2012).
≈ marks a conversion by molar mass, not a printed value. One block for each compound: values may come before it. Calls of active or inactive are those of the source. The rule behind the calls is not given here.

Assays:
[1] = Solubility in 40% HPbetaCD after 24 hrs; format: physicochemical
[2] = Solubility in water at pH 2; format: physicochemical
[3] = Solubility in water at pH 7; format: physicochemical; settings: buffer
[4] = Permeability from apical to basolateral side of human Caco2 cells; format: ADME, cell-based; settings: Caco-2, read-out: permeability
[5] = Permeability from basolateral to apical side of human Caco2 cells; format: ADME, cell-based; settings: Caco-2, read-out: permeability
[6] = Half life in human liver microsomes; format: ADME, Microsome
[7] = Half life in rat liver microsomes; format: ADME, Microsome
Rattus norvegicus [8] = species on record: Rattus norvegicus; assay: Clearance in rat relative to hepatic blood flow; format: ADME, organism-based, Liver; settings: in vivo
Canis familiaris [9] = species on record: Canis familiaris; assay: Clearance in dog relative to hepatic blood flow; format: ADME, organism-based, Canis lupus familiaris, Liver; settings: in vivo
[10] = Elimination half life in rat; settings: in vivo
[11] = Elimination half life in dog; settings: in vivo
[12] = biological target: Voltage-gated inwardly rectifying potassium channel KCNH2 (Homo sapiens, UniProt Q12809); assay: Inhibition of human ERG
Voltage-gated inwardly rectifying potassium channel KCNH2, sequence (Q12809 whole entry): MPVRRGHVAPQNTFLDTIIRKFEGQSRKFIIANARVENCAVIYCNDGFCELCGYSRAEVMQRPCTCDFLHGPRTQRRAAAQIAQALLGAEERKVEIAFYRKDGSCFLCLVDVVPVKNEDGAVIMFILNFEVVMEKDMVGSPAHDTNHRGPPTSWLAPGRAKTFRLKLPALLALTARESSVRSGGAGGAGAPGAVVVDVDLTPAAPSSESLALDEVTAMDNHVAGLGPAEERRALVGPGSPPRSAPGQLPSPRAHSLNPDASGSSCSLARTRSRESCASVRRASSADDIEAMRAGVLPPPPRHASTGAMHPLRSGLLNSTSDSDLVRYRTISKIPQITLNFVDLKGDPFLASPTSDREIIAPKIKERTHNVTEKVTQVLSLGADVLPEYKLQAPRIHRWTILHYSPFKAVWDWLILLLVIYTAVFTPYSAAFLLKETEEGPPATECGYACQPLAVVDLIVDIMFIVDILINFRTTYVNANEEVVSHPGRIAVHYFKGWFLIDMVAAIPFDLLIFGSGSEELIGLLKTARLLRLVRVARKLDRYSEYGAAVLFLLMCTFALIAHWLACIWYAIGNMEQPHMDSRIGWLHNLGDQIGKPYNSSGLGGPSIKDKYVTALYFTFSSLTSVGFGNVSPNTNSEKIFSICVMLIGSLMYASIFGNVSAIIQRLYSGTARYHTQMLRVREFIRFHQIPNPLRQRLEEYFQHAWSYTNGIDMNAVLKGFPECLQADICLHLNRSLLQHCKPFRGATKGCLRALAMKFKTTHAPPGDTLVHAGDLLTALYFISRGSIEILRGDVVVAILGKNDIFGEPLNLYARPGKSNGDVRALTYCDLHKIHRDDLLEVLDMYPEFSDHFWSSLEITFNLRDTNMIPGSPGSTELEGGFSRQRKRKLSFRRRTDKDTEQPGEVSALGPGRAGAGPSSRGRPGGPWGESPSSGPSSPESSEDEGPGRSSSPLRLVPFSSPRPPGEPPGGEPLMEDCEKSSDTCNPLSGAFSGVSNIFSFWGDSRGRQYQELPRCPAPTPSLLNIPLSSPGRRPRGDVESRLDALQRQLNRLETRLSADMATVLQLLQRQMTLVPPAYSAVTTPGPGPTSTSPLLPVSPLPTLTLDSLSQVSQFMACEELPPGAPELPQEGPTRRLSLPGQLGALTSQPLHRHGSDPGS

Cavia porcellus [13] = assay: Toxicity in guinea pig assessed as mean arterial blood pressure change at 5 mg/kg, iv; format: organism-based; parameters: dose 5 mg/kg, route intravenous; settings: in vivo
Cavia porcellus [14] = assay: Toxicity in guinea pig assessed as change in heart rate at 5 mg/kg, iv; format: organism-based; parameters: dose 5 mg/kg, route intravenous; settings: in vivo
Cavia porcellus [15] = assay: Toxicity in guinea pig assessed as change in ECG at 5 mg/kg, iv; format: organism-based; parameters: dose 5 mg/kg, route intravenous; settings: in vivo
Rattus norvegicus [16] = assay: Toxicity in rat assessed as developmental abnormality dosed for 14 days; format: organism-based; settings: in vivo, 336 h
Canis familiaris [17] = assay: Toxicity in dog assessed as developmental abnormality dosed for 7 days; format: organism-based, Canis lupus familiaris; settings: in vivo, 168 h
[18] = Clearance in iv dosed Sprague-Dawley rat; format: ADME, organism-based; settings: in vivo
[19] = Clearance in iv dosed Beagle dog; format: ADME, organism-based, Canis lupus familiaris; settings: in vivo
[20] = Clearance in iv dosed Cynomolgus monkey; format: ADME, organism-based, Macaca fascicularis; settings: in vivo
Rattus norvegicus [21] = assay: Drug metabolism in po dosed rat assessed as 5-methoxy-6-(2-methyl-6-(methylsulfonyl)pyridin-3-ylamino)pyrimidin-4-ol formation; format: ADME, organism-based; settings: in vivo
Rattus norvegicus [22] = assay: Drug metabolism in po dosed rat assessed as 5-methoxy-N-(2-methyl-6-(methylsulfonyl)pyridin-3-yl)-6-(piperidin-4-yloxy)pyrimidin-4-amine formation; format: ADME, organism-based; settings: in vivo
Rattus norvegicus [23] = assay: Drug metabolism in po dosed rat assessed as isopropyl 2-hydroxy-4-(5-methoxy-6-(2-methyl-6-(methylsulfonyl)pyridin-3-ylamino)pyrimidin-4-yloxy)piperidine-1-carboxylate formation; format: ADME, organism-based; settings: in vivo
Cytochrome P450 2C9 = Cytochrome P450 2C9 (Homo sapiens, UniProt P11712); assay: Inhibition of CYP2C9; format: ADME
Cytochrome P450 2C9, sequence (P11712 whole entry): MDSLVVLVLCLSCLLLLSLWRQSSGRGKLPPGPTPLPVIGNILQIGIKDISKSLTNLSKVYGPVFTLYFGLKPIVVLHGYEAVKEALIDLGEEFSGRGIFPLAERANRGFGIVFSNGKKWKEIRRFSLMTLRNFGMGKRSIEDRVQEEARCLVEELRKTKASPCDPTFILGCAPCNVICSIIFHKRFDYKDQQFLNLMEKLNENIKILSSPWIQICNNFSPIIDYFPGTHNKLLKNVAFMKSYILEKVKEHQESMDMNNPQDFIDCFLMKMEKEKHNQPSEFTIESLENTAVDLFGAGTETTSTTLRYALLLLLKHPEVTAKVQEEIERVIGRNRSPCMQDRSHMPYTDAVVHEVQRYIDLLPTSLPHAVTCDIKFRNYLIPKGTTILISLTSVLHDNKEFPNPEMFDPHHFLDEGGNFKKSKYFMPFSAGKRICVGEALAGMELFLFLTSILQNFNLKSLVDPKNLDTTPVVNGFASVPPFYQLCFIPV

[24] = Solubility in 20% HPbetaCD after 24 hrs; format: physicochemical
Mus musculus [25] = assay: Antidiabetic activity in fasted C57bl/6j mouse assessed as reduction in AUC of glucose at 1 mg/kg, po administered 30 mins prior glucose challenge by oral glucose tolerance test; format: functional, organism-based; parameters: dose 1 mg/kg
Mus musculus [26] = assay: Antidiabetic activity in fasted C57bl/6j mouse assessed as reduction in AUC of glucose at 10 mg/kg, po administered 30 mins prior glucose challenge by oral glucose tolerance test; format: functional, organism-based; parameters: dose 10 mg/kg
Rattus norvegicus [27] = assay: Antidiabetic activity in fasted Sprague-Dawley rat assessed as reduction in AUC of glucose at 3 mg/kg, po administered 30 mins prior glucose challenge by oral glucose tolerance test; format: functional, organism-based; parameters: dose 3 mg/kg
Rattus norvegicus [28] = assay: Antidiabetic activity in fasted Sprague-Dawley rat assessed as reduction in AUC of glucose at 30 mg/kg, po administered 30 mins prior glucose challenge by oral glucose tolerance test; format: functional, organism-based; parameters: dose 30 mg/kg
[29] = Tmax in C57Bl mouse at 10 mg/kg, po; format: ADME, organism-based; parameters: dose 10 mg/kg, route oral; settings: in vivo
[30] = Tmax in Sprague-Dawley rat at 10 mg/kg, po; format: ADME, organism-based; parameters: dose 10 mg/kg, route oral; settings: in vivo
[31] = Tmax in Beagle dog at 7.85 mg/kg, po; format: ADME, organism-based, Canis lupus familiaris; parameters: dose 7.85 mg/kg, route oral; settings: in vivo
[32] = Tmax in cynomolgus monkey at 10 mg/kg, po; format: ADME, organism-based, Macaca fascicularis; parameters: dose 10 mg/kg, route oral; settings: in vivo
[33] = Cmax in C57Bl mouse at 10 mg/kg, po; format: ADME, organism-based; parameters: dose 10 mg/kg, route oral; settings: in vivo
[34] = Cmax in Sprague-Dawley rat at 10 mg/kg, po; format: ADME, organism-based; parameters: dose 10 mg/kg, route oral; settings: in vivo
[35] = Cmax in Beagle dog at 7.85 mg/kg, po; format: ADME, organism-based, Canis lupus familiaris; parameters: dose 7.85 mg/kg, route oral; settings: in vivo
[36] = Cmax in cynomolgus monkey at 10 mg/kg, po; format: ADME, organism-based, Macaca fascicularis; parameters: dose 10 mg/kg, route oral; settings: in vivo
[37] = AUC (0 to infinity) in C57Bl mouse at 10 mg/kg, po; format: ADME, organism-based; parameters: time infinity, dose 10 mg/kg, route oral; settings: plasma
[38] = AUC (0 to infinity) in Sprague-Dawley rat at 10 mg/kg, po; format: ADME, organism-based; parameters: time infinity, dose 10 mg/kg, route oral; settings: plasma
[39] = AUC (0 to infinity) in Beagle dog at 7.85 mg/kg, po; format: ADME, organism-based, Canis lupus familiaris; parameters: time infinity, dose 7.85 mg/kg, route oral; settings: plasma
[40] = AUC (0 to infinity) in cynomolgus monkey at 10 mg/kg, po; format: ADME, organism-based, Macaca fascicularis; parameters: time infinity, dose 10 mg/kg, route oral; settings: plasma
[41] = Half life in C57Bl mouse at 10 mg/kg, po; settings: in vivo
[42] = Half life in Sprague-Dawley rat at 10 mg/kg, po; settings: in vivo
[43] = Half life in cynomolgus monkey at 10 mg/kg, po; settings: in vivo
[44] = Mean residence time in C57Bl mouse at 10 mg/kg, po; format: ADME, organism-based; parameters: dose 10 mg/kg, route oral; settings: in vivo
[45] = Mean residence time in Sprague-Dawley rat at 10 mg/kg, po; format: ADME, organism-based; parameters: dose 10 mg/kg, route oral; settings: in vivo
[46] = Mean residence time in Beagle dog at 7.85 mg/kg, po; format: ADME, organism-based, Canis lupus familiaris; parameters: dose 7.85 mg/kg, route oral; settings: in vivo
[47] = Mean residence time in cynomolgus monkey at 10 mg/kg, po; format: ADME, organism-based, Macaca fascicularis; parameters: dose 10 mg/kg, route oral; settings: in vivo
Mus musculus [48] = assay: Antidiabetic activity in ob/ob mouse assessed as blood glucose AUC at 3 mg/kg administered 60 mins prior glucose challenge by oral glucose tolerance test relative to vehicle treated control; format: functional
Rattus norvegicus [49] = assay: Antidiabetic activity in Sprague-Dawley rat assessed as blood glucose AUC at 3 mg/kg administered 60 mins prior glucose challenge by oral glucose tolerance test relative to vehicle treated control; format: functional
Rattus norvegicus [50] = assay: Antidiabetic activity in ZDF rat assessed as blood glucose AUC at 3 mg/kg administered 60 mins prior glucose challenge by oral glucose tolerance test relative to vehicle treated control; format: functional
Cynomolgus monkey [51] = assay: Antidiabetic activity in cynomolgus monkey assessed as blood glucose AUC at 3 mg/kg administered 60 mins prior glucose challenge by oral glucose tolerance test relative to vehicle treated control; format: functional, Macaca fascicularis
Rattus norvegicus [52] = assay: Drug concentration in Sprague-Dawley rat measured at initiation of the oral glucose tolerance test at 3 mg/kg; format: ADME, organism-based; parameters: dose 3 mg/kg, route oral; settings: in vivo
Rattus norvegicus [53] = assay: Drug concentration in ZDF rat measured at initiation of the oral glucose tolerance test at 3 mg/kg; format: ADME, organism-based; parameters: dose 3 mg/kg, route oral; settings: in vivo
Cynomolgus monkey [54] = assay: Drug concentration in cynomolgus monkey measured at initiation of the oral glucose tolerance test at 3 mg/kg; format: ADME, organism-based, Macaca fascicularis; parameters: dose 3 mg/kg, route oral; settings: in vivo
in vivo = settings: beagle, dog, po, 7.85 mg/kg
Description: Half life in Beagle dog at 7.85 mg/kg, po

[55] = Solubility in water; format: physicochemical; settings: buffer
[56] = Solubility in water at low pH; format: physicochemical; settings: buffer

solubility [2]: 310 µg/mL (≈ 0.646 mM)
solubility [3]: 110 µg/mL (≈ 0.229 mM)
Papp A→B [4]: 26 ×10⁻⁶ cm/s
Papp B→A [5]: 15 ×10⁻⁶ cm/s
half-life [6]: > 1 h
half-life [7]: > 1 h
CL (Rattus norvegicus [8]): 16%
CL (Canis familiaris [9]): 16%
half-life [10]: 3 h
half-life [11]: 7 h
clearance [18]: 9.67 mL/min/kg
clearance [19]: 0.667 mL/min/kg
clearance [20]: 1.83 mL/min/kg
Drug metabolism (Rattus norvegicus [21]): Active
Drug metabolism (Rattus norvegicus [22]): Active
Drug metabolism (Rattus norvegicus [23]): Active
IC50 (Cytochrome P450 2C9): 8 µM
solubility at 24 h [24]: 33000 µg/mL (≈ 68.8 mM)
Tmax [29]: 2 h
Tmax [30]: 1 h
Tmax [31]: 8 h
Tmax [32]: 6 h
Cmax [33]: 25800 ng/mL
Cmax [34]: 1390 ng/mL
Cmax [35]: 1980 ng/mL
Cmax [36]: 4800 ng/mL
AUC(0-inf) [37]: 320000 ng·h/mL
AUC(0-inf) [38]: 12500 ng·h/mL
AUC(0-inf) [39]: 43700 ng·h/mL
AUC(0-inf) [40]: 64200 ng·h/mL
half-life [41]: 5.9 h
half-life [42]: 4.3 h
half-life [43]: 4.4 h
MRT [44]: 7.9 h
MRT [45]: 6.8 h
MRT [46]: 10.9 h
MRT [47]: 8.4 h
half-life (in vivo): 10.9 h
SMILES: COc1c(Nc2ccc(S(C)(=O)=O)nc2C)ncnc1OC1CCN(C(=O)OC(C)C)CC1 [ADP-597]
IC50 [12]: > 10 µM
Activity (Cavia porcellus [13]): Non-toxic
Activity (Cavia porcellus [14]): Non-toxic
Activity (Cavia porcellus [15]): Non-toxic
Activity (Rattus norvegicus [16]): Non-toxic
Activity (Canis familiaris [17]): Non-toxic
Activity (Mus musculus [25]): Active
Activity (Mus musculus [26]): Active
Activity (Rattus norvegicus [27]): Active
Activity (Rattus norvegicus [28]): Active
Activity (Mus musculus [48]): 78.4%
Activity (Rattus norvegicus [49]): 85.1%
Activity (Rattus norvegicus [50]): 72.8%
Activity (Cynomolgus monkey [51]): 82.8%
Drug uptake (Rattus norvegicus [52]): 482 ng/mL
Drug uptake (Rattus norvegicus [53]): 1592 ng/mL
Drug uptake (Cynomolgus monkey [54]): 112 ng/mL

solubility at 24 h [24]: 7800 µg/mL (≈ 15.1 mM)
SMILES: Cc1nc(S(C)(=O)=O)ccc1Nc1ncnc(OC2CCN(C(=O)OC(C)C)CC2)c1OC(F)F

solubility at 24 h [24]: 6700 µg/mL (≈ 14.4 mM)
SMILES: Cc1nc(S(C)(=O)=O)ccc1Oc1ncnc(OC2CCN(C(=O)OC(C)C)CC2)c1C

IC50 (Cytochrome P450 2C9): 2.5 µM
solubility at 24 h [24]: 24000 µg/mL (≈ 51.8 mM)
solubility [55]: Insoluble
solubility [56]: soluble
SMILES: Cc1nc(S(C)(=O)=O)ccc1Nc1ncnc(OC2CCN(C(=O)OC(C)C)CC2)c1C

The next lines start with the compound.

SMILES: Cc1c(Nc2ccc(S(C)(=O)=O)cc2F)ncnc1OC1CCN(C(=O)OC(C)C)CC1
solubility at 24 h [1]: 16700 µg/mL (≈ 35.8 mM)

SMILES: Cc1ccc(Oc2ncnc(OC3CCN(C(=O)OC(C)C)CC3)c2C)c(C)n1
solubility at 24 h [24]: 13200 µg/mL (≈ 33.1 mM)

SMILES: Cc1c(Oc2ccc(S(C)(=O)=O)cc2F)ncnc1OC1CCN(C(=O)OC(C)C)CC1
IC50 (Cytochrome P450 2C9): 5.3 µM
solubility at 24 h [1]: 1100 µg/mL (≈ 2.35 mM)
solubility at 24 h [24]: 1100 µg/mL (≈ 2.35 mM)

SMILES: Cc1ccncc1Oc1ncnc(OC2CCN(C(=O)OC(C)C)CC2)c1C
solubility at 24 h [1]: 8500 µg/mL (≈ 22 mM)

SMILES: Cc1cc(S(C)(=O)=O)ncc1Oc1ncnc(OC2CCN(C(=O)OC(C)C)CC2)c1C
solubility at 24 h [24]: 13100 µg/mL (≈ 28.2 mM)

SMILES: Cc1cc(S(C)(=O)=O)ncc1Nc1ncnc(OC2CCN(C(=O)OC(C)C)CC2)c1C
solubility at 24 h [24]: 20400 µg/mL (≈ 44 mM)
